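In this assay, cells in 96-well plates receive the compound at five concentrations for 48 hours. Endpoints are linearly interpolated between the surrounding concentrations. Abbreviation: GI50, concentration required for 50% inhibition of growth.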 Calls of active or inactive are those of the source. Cut-off read from the data, not from the text of the source: active = GI50 up to about 1.1 µM and inactive = higher.
What was measured:
Experiment in all cases: inhibition of tumour cell growth, NCI panel, 48 h
[1] = tested on: SR
[2] = tested on: UACC-62
[3] = tested on: SF-539
[4] = tested on: RXF 393
[5] = tested on: HL-60
[6] = tested on: HOP-92
[7] = tested on: ACHN
[8] = tested on: MDA-MB-435
[9] = tested on: NCI/ADR-RES
[10] = tested on: MDA-N
[11] = tested on: MCF7
[12] = tested on: NCI-H226
[13] = tested on: Hs-578T
[14] = tested on: HCC 2998
[15] = tested on: T47D
[16] = tested on: DU-145
[17] = tested on: MDA-MB-231
[18] = tested on: 786-0
[19] = tested on: BT-549

Measured: GI50

O=C1C(Cl)N(c2c(Cl)cccc2Cl)C1c1c[nH]c2ccccc12 (configuration not stated)
inactive: [1] > 100 µM | [2] > 100 µM | [3] > 100 µM | [4] > 100 µM | [5] > 100 µM | [6] > 100 µM

CS(=O)(=O)OCC(CCl)(CCl)CCl
inactive: [7] > 100 µM | [8] > 100 µM | [1] > 100 µM | [9] > 100 µM | [10] > 100 µM | [11] > 100 µM | [12] > 100 µM | [13] > 100 µM | [14] > 100 µM | [15] > 100 µM | [16] > 100 µM | [4] > 100 µM | [6] > 100 µM | [17] > 100 µM

COC(=O)CCc1ccc(CCC(=O)OC)cc1
inactive: [7] > 100 µM | [8] > 100 µM | [1] > 100 µM | [9] > 100 µM | [10] > 100 µM | [18] > 100 µM | [11] > 100 µM | [13] > 100 µM | [14] > 100 µM | [15] > 100 µM | [16] > 100 µM | [3] > 100 µM | [4] > 100 µM | [5] > 100 µM | [6] > 100 µM | [17] > 100 µM

CCP(=O)(CC)C(Cl)(Cl)C(=O)NC
inactive: [7] > 100 µM | [8] > 100 µM | [1] > 100 µM | [9] > 100 µM | [10] > 100 µM | [12] > 100 µM | [13] > 100 µM | [14] > 100 µM | [15] > 100 µM | [16] > 100 µM | [5] > 100 µM | [6] > 100 µM | [17] > 100 µM

CC1=C(C(=O)OCCO[N+](=O)[O-])C(c2ccccc2C(F)(F)F)C(C(=O)OC(C)C)=C(C)N1 (configuration not stated)
inactive: [7] 25.7 µM | [8] 16.6 µM | [1] 41.7 µM | [9] 14.3 µM | [2] 19.3 µM | [18] 15 µM | [11] 16 µM | [12] 9.73 µM | [14] 22.4 µM | [15] 19.8 µM | [16] 39.4 µM | [3] 17.3 µM | [19] 13.5 µM | [4] 10.3 µM | [5] 15.9 µM | [6] 3.03 µM | [17] 10.9 µM

Cc1cc(C)c(/C=C(\C(=C/c2c(C)cc(C)cc2C)[N+](=O)[O-])[N+](=O)[O-])c(C)c1
inactive: [7] > 100 µM | [8] > 100 µM | [1] 30.4 µM | [10] > 100 µM | [2] > 100 µM | [11] 58.9 µM | [14] > 100 µM | [15] 78.9 µM | [16] > 100 µM | [3] > 100 µM | [19] > 100 µM | [4] 20.6 µM | [6] > 100 µM | [17] > 100 µM

O=c1[nH]nc(NNc2ccccc2)c2nnn(C3CCCCC3)c12
inactive: [7] > 100 µM | [8] > 100 µM | [1] > 100 µM | [9] > 100 µM | [10] > 100 µM | [11] > 100 µM | [14] > 100 µM | [16] > 100 µM | [19] > 100 µM | [5] > 100 µM | [6] > 100 µM | [17] > 100 µM

CCOC(=O)CCC(NC(=O)OCc1ccccc1)C(=O)NC(CCC(=O)OCC)C(=O)NC(CCC(=O)OCC)C(=O)NC(CCC(=O)OCC)C(=O)NC(CCC(=O)OCC)C(=O)NC(CCC(=O)OCC)C(=O)NC(CCC(=O)OCC)C(=O)OCC (configuration not stated)
inactive: [7] > 100 µM | [8] > 100 µM | [1] 70.8 µM | [10] > 100 µM | [2] > 100 µM | [18] > 100 µM | [11] > 100 µM | [12] > 100 µM | [14] 26.1 µM | [15] > 100 µM | [16] > 100 µM | [19] > 100 µM | [5] > 100 µM | [17] > 100 µM

CN(C)S(=O)(=O)n1cnc(CO)c1
inactive: [7] > 100 µM | [8] > 100 µM | [9] > 100 µM | [10] > 100 µM | [18] > 100 µM | [11] > 100 µM | [12] > 100 µM | [14] > 100 µM | [15] > 100 µM | [3] > 100 µM | [19] > 100 µM | [4] > 100 µM | [6] > 100 µM | [17] > 100 µM

CCCCN(CCCC)C1=Nc2ccccc2-n2c(nnc2C(=O)OCC)C1
inactive: [7] 38.3 µM | [8] 38.5 µM | [1] 19.1 µM | [9] 39.2 µM | [2] 47.2 µM | [18] 73.1 µM | [11] 37.2 µM | [12] 50.6 µM | [13] > 100 µM | [14] 38.8 µM | [15] 10.4 µM | [16] 75.3 µM | [3] 44.4 µM | [4] 24.7 µM | [5] 15.6 µM | [6] 33.6 µM | [17] 38.1 µM

— ChEMBL document CHEMBL1201862, “PubChem BioAssay data set” (2004)
